According to the supplement of paper PMC10307832:

Columns and labels:
Test in all cases: relative viability (nuclei count vs DMSO), 5 days (fraction); higher = more cells survive
[1] = compound: Cc1ccc(C(=O)Nc2cccc(C(F)(F)F)c2)cc1Nc1cncc(C(N)=O)c1 [ALW-II-49-7] + COc1cc2c(Oc3ccc(NC(=O)C4(C(=O)Nc5ccc(F)cc5)CC4)cc3F)ccnc2cc1OCCCN1CCOCC1 [Foretinib] (partner 0.25 µM)
Method in brief: (§1)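 A single step with final 0.05% Triton X-100, 1% formaldehyde and 1 ug/ml Hoechst fixed the cells and stained nuclei 5 days after treatment. Lung cancer cell lines in 1536-well plates had been treated by pin tool the day after seeding with one drug alone or a fixed anchor-drug dose plus five library-drug doses (not always all listed) in √10 steps, and nuclei were counted on 4× images. Relative viability is the ratio of nuclei in treated wells to nuclei in vehicle wells, taken as the median of duplicate plates.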

[2] = compound: C1CC1C(=O)NC2=NNC3=C2C=CC(=C3)C4=CC(=CC=C4)C(=O)NC5CC5 [XMD13-2] + O=C(CCCCCCC(=O)Nc1ccccc1)NO [Vorinostat] (partner 1 µM)
Method in brief: as §1

[3] = compound: C1CC1C(=O)NC2=NNC3=C2C=CC(=C3)C4=CC(=CC=C4)C(=O)NC5CC5 [XMD13-2] + N=C(N)NC(=N)NCCc1ccccc1 [Phenformin] (partner 250 µM)
Method in brief: as §1

[4] = compound: C1CC1C(=O)NC2=NNC3=C2C=CC(=C3)C4=CC(=CC=C4)C(=O)NC5CC5 [XMD13-2] + CC(=O)c1c(C)c2cnc(Nc3ccc(N4CCNCC4)cn3)nc2n(C2CCCC2)c1=O [Palbociclib] (partner 0.5 µM)
Method in brief: as §1

Work on UMC-11 yielded a relative viability ([1]; first compound 0.08 µM) of 1.11, a relative viability ([1]; first compound 0.253 µM) of 1.06 and a relative viability ([1]; first compound 0.8 µM) of 0.991. It also gave a relative viability ([1]; first compound 2.53 µM) of 1.07, a relative viability ([1]; first compound 8 µM) of 1.03 and a relative viability ([2]; first compound 0.05 µM) of 0.356. For the same cell line, the relative viability ([2]; first compound 0.1581 µM) was 0.413, the relative viability ([2]; first compound 0.5 µM) was 0.459 and the relative viability ([2]; first compound 1.581 µM) was 0.396. It also gave a relative viability ([2]; first compound 5 µM) of 0.318, a relative viability ([3]; first compound 0.05 µM) of 0.362 and a relative viability ([3]; first compound 0.1581 µM) of 0.314. For the same cell line, the relative viability ([3]; first compound 0.5 µM) was 0.337, the relative viability ([3]; first compound 1.581 µM) was 0.317 and the relative viability ([3]; first compound 5 µM) was 0.285. It also gave a relative viability ([4]; first compound 0.05 µM) of 0.356, a relative viability ([4]; first compound 0.1581 µM) of 0.313 and a relative viability ([4]; first compound 0.5 µM) of 0.349. For the same cell line, the relative viability ([4]; first compound 1.581 µM) was 0.33 and the relative viability ([4]; first compound 5 µM) was 0.334.
